Publication PMC6804443 (Acta Pharmaceutica Sinica. B, 2019)
Entries after “also recorded” stand apart in the source; their conditions may differ.

Experiments:
CYP2C9 = CYP2C9 (Homo sapiens, UniProt P11712); experiment: CYP2C9 inhibition by XueBiJing compounds, cDNA-expressed enzyme [MFC→HFC]; format: in vitro ADME
UGT1A1 = target: T1, UGT1A1 (Homo sapiens, UniProt P22309); experiment: UGT1A1 inhibition by XueBiJing compounds, cDNA-expressed enzyme [E2→E23βG]; format: in vitro ADME
T1 sequence (P22309 26-533): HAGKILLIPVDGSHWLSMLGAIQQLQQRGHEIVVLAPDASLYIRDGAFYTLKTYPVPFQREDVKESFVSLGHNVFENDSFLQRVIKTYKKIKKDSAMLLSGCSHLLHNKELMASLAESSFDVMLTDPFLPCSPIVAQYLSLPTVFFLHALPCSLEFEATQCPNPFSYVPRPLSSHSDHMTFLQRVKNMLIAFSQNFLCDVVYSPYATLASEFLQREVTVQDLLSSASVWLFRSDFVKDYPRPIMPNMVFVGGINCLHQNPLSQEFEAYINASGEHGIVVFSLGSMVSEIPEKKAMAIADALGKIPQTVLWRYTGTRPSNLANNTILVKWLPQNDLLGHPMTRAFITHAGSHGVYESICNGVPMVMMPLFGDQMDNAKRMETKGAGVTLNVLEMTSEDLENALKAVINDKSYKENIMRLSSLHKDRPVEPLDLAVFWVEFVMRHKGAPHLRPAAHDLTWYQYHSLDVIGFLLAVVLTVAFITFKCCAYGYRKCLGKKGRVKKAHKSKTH

UGT2B15 = target: T2, UGT2B15 (Homo sapiens, UniProt P54855); experiment: UGT2B15 inhibition by XueBiJing compounds, cDNA-expressed enzyme [SENI→S7G]; format: in vitro ADME
T2 sequence (P54855 24-530): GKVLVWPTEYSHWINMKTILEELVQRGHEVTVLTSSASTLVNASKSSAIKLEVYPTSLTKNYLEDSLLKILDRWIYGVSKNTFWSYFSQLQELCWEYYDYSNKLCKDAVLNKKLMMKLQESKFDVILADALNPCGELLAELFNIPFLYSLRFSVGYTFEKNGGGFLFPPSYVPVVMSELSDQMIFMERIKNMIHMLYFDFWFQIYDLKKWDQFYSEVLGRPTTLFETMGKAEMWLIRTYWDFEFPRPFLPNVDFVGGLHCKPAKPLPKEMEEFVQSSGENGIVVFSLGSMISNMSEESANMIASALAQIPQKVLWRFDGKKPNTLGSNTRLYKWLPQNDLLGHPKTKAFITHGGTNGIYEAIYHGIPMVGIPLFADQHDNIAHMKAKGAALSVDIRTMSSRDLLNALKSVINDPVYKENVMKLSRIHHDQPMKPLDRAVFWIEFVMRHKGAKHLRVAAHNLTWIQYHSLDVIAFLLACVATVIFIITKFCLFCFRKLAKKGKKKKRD

OATP1B3 [1] = target: T3, OATP1B3 (Homo sapiens, UniProt Q9NPD5); experiment: in vitro; format: in vitro ADME
T3 sequence (Q9NPD5 1-702): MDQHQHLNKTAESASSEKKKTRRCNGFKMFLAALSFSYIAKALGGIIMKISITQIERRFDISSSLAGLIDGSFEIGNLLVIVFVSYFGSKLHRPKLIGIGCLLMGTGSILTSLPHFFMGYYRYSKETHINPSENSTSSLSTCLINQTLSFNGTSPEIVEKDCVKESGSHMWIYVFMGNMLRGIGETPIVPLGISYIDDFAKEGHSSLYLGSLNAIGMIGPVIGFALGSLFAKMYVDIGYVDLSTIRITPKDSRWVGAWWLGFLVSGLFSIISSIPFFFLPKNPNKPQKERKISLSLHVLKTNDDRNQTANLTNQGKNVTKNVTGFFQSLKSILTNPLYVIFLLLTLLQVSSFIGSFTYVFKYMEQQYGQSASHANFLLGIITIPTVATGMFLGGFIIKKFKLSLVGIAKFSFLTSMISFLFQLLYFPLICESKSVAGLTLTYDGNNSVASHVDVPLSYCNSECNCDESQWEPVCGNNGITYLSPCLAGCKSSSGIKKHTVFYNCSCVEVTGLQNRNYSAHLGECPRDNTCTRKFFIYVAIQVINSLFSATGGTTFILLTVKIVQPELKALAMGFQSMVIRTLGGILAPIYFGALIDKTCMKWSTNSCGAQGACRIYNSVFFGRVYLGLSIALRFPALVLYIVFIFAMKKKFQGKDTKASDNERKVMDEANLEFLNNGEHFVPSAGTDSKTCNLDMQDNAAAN

OATP1B3 [2] = target: T3, OATP1B3
[3] = cited from earlier work
OATP1B3 [4] = target: T3, OATP1B3; experiment: in vitro
[5] = XueBiJing compounds; cited from earlier work
[6] = human, XueBiJing 100 mL via 75-min intravenous infusion

Chain of CYP2C9 (P11712 whole entry): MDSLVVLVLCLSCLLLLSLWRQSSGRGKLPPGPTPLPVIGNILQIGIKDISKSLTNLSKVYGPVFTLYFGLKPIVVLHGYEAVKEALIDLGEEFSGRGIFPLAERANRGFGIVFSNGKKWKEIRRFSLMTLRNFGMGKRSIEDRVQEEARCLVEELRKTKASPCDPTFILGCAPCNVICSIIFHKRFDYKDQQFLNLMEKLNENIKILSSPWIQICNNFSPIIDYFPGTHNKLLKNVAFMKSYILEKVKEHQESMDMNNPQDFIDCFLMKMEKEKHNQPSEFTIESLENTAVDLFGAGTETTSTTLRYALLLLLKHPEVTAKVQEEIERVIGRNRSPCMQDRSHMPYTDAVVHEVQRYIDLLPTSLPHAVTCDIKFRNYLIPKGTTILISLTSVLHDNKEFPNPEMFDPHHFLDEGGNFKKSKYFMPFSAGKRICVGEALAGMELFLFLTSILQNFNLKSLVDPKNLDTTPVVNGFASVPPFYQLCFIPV

## O=C(/C=C/c1ccc(O)c2c1[C@H](C(=O)O[C@H](Cc1ccc(O)c(O)c1)C(=O)O)[C@@H](c1ccc(O)c(O)c1)O2)O[C@H](Cc1ccc(O)c(O)c1)C(=O)O [X10, salvianolic acid B]
CYP2C9
  IC50: 75 ± 13 µM
CYP2C9; human, cDNA-expressed CYP2C9, probe MFC (75 μmol/L)
  inhibition at 100 μmol/L: 68 to 80%
UGT1A1
  IC50: 10 ± 1 µM
UGT1A1; human, cDNA-expressed UGT1A1, probe E2 (20 μmol/L), E23βG formed
  inhibition at 100 μmol/L: > 90%
UGT2B15
  IC50: 92 ± 25 µM
UGT2B15; human, cDNA-expressed UGT2B15
  inhibition at 100 μmol/L: 55%
OATP1B3 [1]
  Km: 14 µM
OATP1B3 [2]
  IC50: 18 ± 4 µM
[3]; human plasma
  fu-p (unbound fraction in plasma): 3%
[3]; [6]
  Cmax: 100 nM
  VSS: 1.28 L/kg
  t1/2: 12 min
[3]; human
  Major elimination route: Hepatobiliary excretion; also recorded: Hepatic methylation
OATP1B3 [4]
  inhibition at 100 μmol/L: > 50%
[5]
  Membrane permeability: Poor
